Literature values as cited in patent US20230059869A1, “ORAL PHARMACEUTICAL SOLUTION OF CLOPIDOGREL” (LIQMEDS WORLDWIDE LIMITED, priority 2021, published 2023).

Assays:
[1] = see Reist; Badorc
[2] = at high doses; see Reist; Badorc

## COC(=O)[C@@H](c1ccccc1Cl)N1CCc2sccc2C1 [Impurity C, (R)-Methyl (2-chlorophenyl)(6,7-dihydro-4H-thieno[3,2-c]pyridin-5-yl)acetate]
[1]
  antithrombotic activity: devoid of antithrombotic activity
[2]
  convulsions: can evoke convulsions at high doses
